Measured values: patent publication US11186588B2 (AYUMI PHARMACEUTICAL CORPORATION, priority 2017, dated 2021)

Tests used:
[1] = molecular target: Recombinant BRD4 (44-168) protein (Homo sapiens (Human), UniProt O60885); assay: BRD4-H4KAc4 binding assay (amplified luminescence proximity homogeneous assay, AlphaScreen); conditions: 10 uM
Description: In order to evaluate BRD4 inhibitory activity of the present compounds, BRD4-H4KAc4 binding assay was carried out by an amplified luminescence proximity homogeneous assay. The specific method is described below.
H4KAc4 peptide (available from Toray Research Center, Inc., sequence SGRGK(Ac)GGK(Ac)GLGK(Ac)GGAK(Ac)RHR-K(Biotin)-NH2) was dissolved in 1×Assay buffer to prepare 1 mM H4KAc4 peptide stock solution.
N-terminal His tag/C-terminal FLAG tag-fused type Recombinant BRD4 (44-168) protein (available from Active Motif, Cat No. 31380) was diluted with 1×Assay buffer to 1,250-fold to prepare 250 nM BRD4 solution.
1% DMSO solution (control) and 2 μL of each compound solution in each concentration were added to each well of AlphaPlate-384 (from PerkinElmer, Cat No. 6008350). Next, 2 μL of 250 nM BRD4 solution was added to each well of AlphaPlate-384. Further, 2 μL of 250 nM H4KAc4 peptide solution was added to each well of AlphaPlate-384. After addition of the 250 nM H4KAc4 peptide solution, the mixture was allowed to stand at room temperature under light shielding for 60 minutes, and 4 μL of AlphaScreen beads were added to each well of AlphaPlate-384. After addition of the AlphaScreen beads, the mixture was allowed to stand at room temperature under light shielding for 60 minutes, emission at 520-620 nm upon excitation at 680 nm was detected by EnVision multilabel counter (from PerkinElmer), and binding of BRD4 and H4KAc4 was detected. Incidentally, the evaluation of each compound was carried out in duplicate (2 well per 1 compound).
(§1) The BRD4 inhibition rate (%) was calculated by the following equation using Microsoft EXCEL 2010. BRD4 inhibition rate (%)=100−{(luminescence intensity average value of each compound added well)−(average value of luminescence intensity of blank well))/(average value of luminescence intensity of control well)−(average value of luminescence intensity of blank well)}×100

NF-κB = NF-κB reporter gene assay (TNF-α stimulated A549/NF-κB-luc cells); assay type: cell-based; conditions: Homo sapiens, TNF-α stimulation
Description: In order to evaluate NF-κB inhibitory activity of the present compounds, NF-κB reporter gene assay was carried out. The specific method is described below.
Gene recombinant human TNF-α (available from R&D systems, Cat No. 210-TA) was dissolved in D-PBS(−) (available from Wako Pure Chemical Industries, Ltd., Cat No. 293-72601) to prepare 100 μg/mL of TNF-α solution stock solution. 100 μg/mL of the TNF-α solution stock solution was diluted with the culture medium to prepare 10 ng/mL of TNF-α solution.
A549/NF-κB-luc cells (available from Panomics, Cat No. LR0051) were prepared at 375,000 cells/mL in the culture medium. The 375,000 cells/mL A549/NF-κB-luc cell suspension was seeded at 80 μL each on a white 96-well plate (available from Greiner, Cat No. 655073). One hour after seeding the cells, 10 μL of 2% DMSO solution (control) and each compound solution in each concentration were added to each well of the 96-well plate. One hour after the addition of each compound solution, 10 ng/mL of the TNF-α solution (10 μL) was added to each well of the 96-well plate. Three hours after the addition of 10 ng/mL of the TNF-α solution, 100 μL of Steady-Glo reagent (available from Promega, Cat No. E2510) was added to each well of the 96-well plate. After 30 to 90 minutes of the addition of the Steady-Glo reagent, the luminescence intensity of each well was detected by EnVision multilabel counter (available from PerkinElmer).
as §1, with “NF-κB” for “The BRD4”, “NF-κB” for “BRD4”, “well)}×100 In addition, IC50 values were calculated from the calculated NF-κB inhibition rate (%) using curve fitting software XLfit (available from IDBS).” for “well)}×100”

Row | SMILES | inhibition at 10 µM [1] | IC50 (NF-κB)
1 | Cc1sc2c(c1C)C(c1ccc(Cl)cc1)=NN(Cc1ccccc1)c1nnc(C)n1-2 [Example 3, 6-benzyl-4-(4-chlorophenyl)-2,3,9-trimethyl-6H-thieno[2,3-e][1,2,4]triazolo[3,4-c][1,2,4]triazepine] | 100% | 51.9 nM
2 | COc1cccc(CN2N=C(c3ccc(Cl)cc3)c3c(sc(C)c3C)-n3c(C)nnc32)c1 [Example 6, 4-(4-chlorophenyl)-6-(3-methoxybenzyl)-2,3,9-trimethyl-6H-thieno[2,3-e][1,2,4]triazolo[3,4-c][1,2,4]triazepine] | 100% | 86.4 nM
3 | Cc1sc2c(c1C)C(c1ccc(Cl)cc1)=NN(Cc1ccc(C(C)(C)C)cc1)c1nnc(C)n1-2 [Example 7, 6-(4-(tert-butyl)benzyl)-4-(4-chlorophenyl)-2,3,9-trimethyl-6H-thieno[2,3-e][1,2,4]triazolo[3,4-c][1,2,4]triazepine] | 99.8% | 735 nM
4 | Cc1sc2c(c1C)C(c1ccc(Cl)cc1)=NN(Cc1ccccc1F)c1nnc(C)n1-2 [Example 8, 4-(4-chlorophenyl)-6-(2-fluorobenzyl)-2,3,9-trimethyl-6H-thieno[2,3-e][1,2,4]triazolo[3,4-c][1,2,4]triazepine] | 100% | 104 nM
5 | Cc1sc2c(c1C)C(c1ccc(Cl)cc1)=NN(Cc1cccc(F)c1)c1nnc(C)n1-2 [Example 9, 4-(4-chlorophenyl)-6-(3-fluorobenzyl)-2,3,9-trimethyl-6H-thieno[2,3-e][1,2,4]triazolo[3,4-c][1,2,4]triazepine] | 100% | 17.6 nM
6 | Cc1sc2c(c1C)C(c1ccc(Cl)cc1)=NN(Cc1ccccc1Cl)c1nnc(C)n1-2 [Example 10, 6-(2-chlorobenzyl)-4-(4-chlorophenyl)-2,3,9-trimethyl-6H-thieno[2,3-e][1,2,4]triazolo[3,4-c][1,2,4]triazepine] | 100% | 192 nM
7 | Cc1ccccc1CN1N=C(c2ccc(Cl)cc2)c2c(sc(C)c2C)-n2c(C)nnc21 [Example 11, 4-(4-chlorophenyl)-2,3,9-trimethyl-6-(2-methylbenzyl)-6H-thieno[2,3-e][1,2,4]triazolo[3,4-c][1,2,4]triazepine] | 100% | 291 nM
8 | Cc1cccc(CN2N=C(c3ccc(Cl)cc3)c3c(sc(C)c3C)-n3c(C)nnc32)c1 [Example 12, 4-(4-chlorophenyl)-2,3,9-trimethyl-6-(3-methylbenzyl)-6H-thieno[2,3-e][1,2,4]triazolo[3,4-c][1,2,4]triazepine] | 100% | 32.1 nM
9 | Cc1ccc(CN2N=C(c3ccc(Cl)cc3)c3c(sc(C)c3C)-n3c(C)nnc32)cc1 [Example 13, 4-(4-chlorophenyl)-2,3,9-trimethyl-6-(4-methylbenzyl)-6H-thieno[2,3-e][1,2,4]triazolo[3,4-c][1,2,4]triazepine] | 100% | 233 nM
10 | Cc1sc2c(c1C)C(c1ccc(Cl)cc1)=NN(Cc1ccc(C(F)(F)F)cc1)c1nnc(C)n1-2 [Example 14, 4-(4-chlorophenyl)-2,3,9-trimethyl-6-(4-(trifluoromethyl)benzyl)-6H-thieno[2,3-e][1,2,4]triazolo[3,4-c][1,2,4]triazepine] | 100% | 276 nM
11 | Cc1sc2c(c1C)C(c1ccc(Cl)cc1)=NN(Cc1cccc(Cl)c1)c1nnc(C)n1-2 [Example 16, 6-(3-chlorobenzyl)-4-(4-chlorophenyl)-2,3,9-trimethyl-6H-thieno[2,3-e][1,2,4]triazolo[3,4-c][1,2,4]triazepine] | 100% | 77.5 nM
12 | Cc1sc2c(c1C)C(c1ccc(Cl)cc1)=NN(Cc1cccc(C(F)(F)F)c1)c1nnc(C)n1-2 [Example 18, 4-(4-chlorophenyl)-2,3,9-trimethyl-6-(3-(trifluoromethyl)benzyl)-6H-thieno[2,3-e][1,2,4]triazolo[3,4-c][1,2,4]triazepine] | 100% | 144 nM
13 | Cc1sc2c(c1C)C(c1ccc(Cl)cc1)=NN(CCc1ccccc1)c1nnc(C)n1-2 [Example 19, 4-(4-chlorophenyl)-2,3,9-trimethyl-6-phenethyl-6H-thieno[2,3-e][1,2,4]triazolo[3,4-c][1,2,4]triazepine] | 96.6% | 1320 nM
14 | Cc1sc2c(c1C)C(c1ccc(Cl)cc1)=NN(Cc1cccc(F)n1)c1nnc(C)n1-2 [Example 21, 4-(4-chlorophenyl)-6-((6-fluoropyridin-2-yl)methyl)-2,3,9-trimethyl-6H-thieno[2,3-e][1,2,4]triazolo[3,4-c][1,2,4]triazepine] | 100% | 30.3 nM
15 | Cc1sc2c(c1C)C(c1ccc(Cl)cc1)=NN(Cc1ncccc1F)c1nnc(C)n1-2 [Example 23, 4-(4-chlorophenyl)-6-((3-fluoropyridin-2-yl)methyl)-2,3,9-trimethyl-6H-thieno[2,3-e][1,2,4]triazolo[3,4-c][1,2,4]triazepine] | 100% | 158 nM
16 | Cc1sc2c(c1C)C(c1ccc(Cl)cc1)=NN(Cc1ncccc1Cl)c1nnc(C)n1-2 [Example 24, 4-(4-chlorophenyl)-6-((3-chloropyridin-2-yl)methyl)-2,3,9-trimethyl-6H-thieno[2,3-e][1,2,4]triazolo[3,4-c][1,2,4]triazepine] | 100% | 1050 nM
17 | Cc1sc2c(c1C)C(c1ccc(Cl)cc1)=NN(Cc1ccc(F)nc1)c1nnc(C)n1-2 [Example 26, 4-(4-chlorophenyl)-6-((6-fluoropyridin-3-yl)methyl)-2,3,9-trimethyl-6H-thieno[2,3-e][1,2,4]triazolo[3,4-c][1,2,4]triazepine] | 100% | 12.3 nM
18 | Cc1sc2c(c1C)C(c1ccc(N)cc1)=NN(Cc1cncc(O)c1)c1nnc(C)n1-2 [Example 103, 5-((4-(4-aminophenyl)-2,3,9-trimethyl-6H-thieno[2,3-e][1,2,4]triazolo[3,4-c][1,2,4]triazepin-6-yl)methyl)pyridin-3-ol] |  | 289 nM
19 | Cc1sc2c(c1C)C(c1ccc(N)cc1)=NN(Cc1ccc(O)nc1)c1nnc(C)n1-2 [Example 104] |  | 3940 nM
20 | Cc1sc2c(c1C)C(c1ccc(N)cc1)=NN(Cc1cccnc1)c1nnc(CO)n1-2 [Example 105, (4-(4-aminophenyl)-2,3-dimethyl-6-(pyridin-3-ylmethyl)-6H-thieno[2,3-e][1,2,4]triazolo[3,4-c][1,2,4]triazepin-9-yl)methanol] |  | 4830 nM
21 | Cc1c(CO)sc2c1C(c1ccc(N)cc1)=NN(Cc1cccnc1)c1nnc(C)n1-2 [Example 106, (4-(4-aminophenyl)-3,9-dimethyl-6-(pyridin-3-ylmethyl)-6H-thieno[2,3-e][1,2,4]triazolo[3,4-c][1,2,4]triazepin-2-yl)methanol] |  | 1840 nM
22 | Cc1sc2c(c1CO)C(c1ccc(N)cc1)=NN(Cc1cccnc1)c1nnc(C)n1-2 [Example 107, (4-(4-aminophenyl)-2,9-dimethyl-6-(pyridin-3-ylmethyl)-6H-thieno[2,3-e][1,2,4]triazolo[3,4-c][1,2,4]triazepin-3-yl)methanol] |  | 2320 nM
23 | Cc1nnc2n1-c1scc(CCO)c1C(c1ccc(N)cc1)=NN2Cc1cccnc1 [Example 108, 2-(4-(4-aminophenyl)-9-methyl-6-(pyridin-3-ylmethyl)-6H-thieno[2,3-e][1,2,4]triazolo[3,4-c][1,2,4]triazepin-3-yl)ethane-1-ol] |  | 4020 nM
